{
  "source": "paper PMC3539403",
  "about": "“Molecular Characterization of Lipopolysaccharide Binding to Human α-1-Acid Glycoprotein” (Journal of Lipids, 2012)",
  "molecules": {"B1": {"name": "BPI: bactericidal/permeability-increasing protein (protein, UniProt P17213 32-487, looked up)", "Bactericidal …": "VNPGVVVRISQKGLDYASQQGTAALQKELKRIKIPDYSDSFKIKHLGKGHYSFYSMDIREFQLPSSQISMVPNVGLKFSISNANIKISGKWKAQKRFLKMSGNFDLSIEGMSISADLKLGSNPTSGKPTITCSSCSSHINSVHVHISKSKVGWLIQLFHKKIESALRNKMNSQVCEKVTNSVSSELQPYFQTLPVMTKIDSVAGINYGLVAPPATTAETLDVQMKGEFYSENHHNPPPFAPPVMEFPAAHDRMVYLGLSDYFFNTAGLVYQEAGVLKMTLRDDMIPKESKFRLTTKFFGTFLPEVAKKFPNMKIQIHVSASTPPHLSVQPTGLTFYPAVDVQAFAVLPNSSLASLFLIGMHTTGSMEVSAESNRLVGELKLDRLLLELKHSNIGPFPVELLQDIMNYIVPILVLPRVNEKLQKGFPLPTPARVQLYNVVLQPHQNFLLFGADVVYK"}, "B2": {"name": "bovine AGP: bovine α-1-acid glycoprotein (protein, UniProt Q3SZR3 19-202, looked up)", "Alpha-1-acid glycoprotein": "QSPECANLMTVAPITNATMDLLSGKWFYIGSAFRNPEYNKSARAIQAAFFYLEPRHAEDKLITREYQTIEDKCVYNCSFIKIYRQNGTLSKVESDREHFVDLLLSKHFRTFMLAASWNGTKNVGVSFYADKPEVTQEQKKEFLDVIKCIGIQESEIIYTDEKKDACGPLEKQHEEERKKETEAS"}, "B3": {"name": "LBP: lipopolysaccharide-binding protein, LPS-specific plasma binding protein (protein, UniProt P18428 26-481, looked up)", "Lipopolysaccharide-binding …": "ANPGLVARITDKGLQYAAQEGLLALQSELLRITLPDFTGDLRIPHVGRGRYEFHSLNIHSCELLHSALRPVPGQGLSLSISDSSIRVQGRWKVRKSFFKLQGSFDVSVKGISISVNLLLGSESSGRPTVTASSCSSDIADVEVDMSGDLGWLLNLFHNQIESKFQKVLESRICEMIQKSVSSDLQPYLQTLPVTTEIDSFADIDYSLVEAPRATAQMLEVMFKGEIFHRNHRSPVTLLAAVMSLPEEHNKMVYFAISDYVFNTASLVYHEEGYLNFSITDDMIPPDSNIRLTTKSFRPFVPRLARLYPNMNLELQGSVPSAPLLNFSPGNLSVDPYMEIDAFVLLPSSSKEPVFRLSVATNVSATLTFNTSKITGFLKPGKVKVELKESKVGLFNAELLEALLNYYILNTFYPKFNDKLAEGFPLPLLKRVQLYDLGLQIHKDFLFLGANVQYMRV"}},
  "key": {"human AGP [1]": {"test_system": "human AGP", "test": "SPR assay of AGP binding to lipid A/Kdo2-lipid A in DMPC hybrid SUV bilayer (L1 chip)", "settings": "10% (mol/mol) lipid in DMPC bilayer; Kdo2-lipid A response at AGP concentrations higher than 7 μM", "experimental": "In the case of lipid A and Kdo2-lipid A binding, a L1 sensor chip was used (GE Health Care, Melbourne Australia). Small unilamellar vesicles (SUVs) were prepared in PBS by sonication and extrusion. Lipids (DMPC, lipid A, and Kdo2-lipid A) were dissolved in ethanol-free chloroform in 25 mL round-bottom flasks. 10% (mol/mol) of lipid A or Kdo2-lipid A was added into DMPC solution to make 10% lipid A/Kdo2-lipid A-DMPC mixtures, which were then deposited as a thin film by removal of the solvent (chloroform) under reduced pressure on a rotary evaporator and dried under high vacuum for at least 2 hours. PBS was then added into each flask to give a 1 mM suspension, which was sonicated 5 min for 5 times. […] The SUVs were then injected into the flow cells of the L1 sensor chip for 2000 sec at a low flow rate of 2 μL/min to form a bilayer membrane model on the chip surface. Then, a series of AGP solutions was injected across the flow cells at a flow rate of 30 μL/min, having an injection phase of 180 s and a dissociation phase of 300 s. A regeneration step was added before and after every cycle using 40 mM octyl-glucoside, which cleans the chip surface for a new cycle. Pure DMPC bilayer was applied as a reference and all data used in analysis were reference-subtracted."}, "human AGP [2]": {"test_system": "human AGP", "test": "Fluorometric assay of FITC-E. coli O111:B4 LPS binding to AGP", "settings": "chlorpromazine 20 μM final concentration; FITC-LPS 5 μM, AGP 25 μM", "experimental": "[…] Fluorescence was measured using a Cary Eclipse Fluorescence spectrophotometer (Varian, Mulgrave, VIC, Australia) set at an excitation wavelength specific for the FITC fluorophore (Exλ 494 nm). Slit widths were set to 5 nm for both the excitation and emission monochromators. The emission spectrum was collected in the 500→650 nm range."}, "[3]": {"test": "LPS binding affinity of plasma binding proteins", "settings": "AGP, this study's SPR data"}, "K. pneumoniae": {"test_system": "K. pneumoniae", "design": "method as in PMID 10809735", "settings": "intraperitoneal, 10 mg, 2 h prior to lethal challenge of K. pneumoniae; cited from earlier work"}, "HEK293 cells": {"test_system": "HEK293 cells", "test": "Cytotoxicity of LPS to HEK293 cells (Alamar Blue cell viability), with or without AGP", "format": "cell-based", "settings": "LPS 100 μg/mL, AGP 0-1 mg/mL", "experimental": "HEK293 cell line was purchased from American Type Culture Collection (ATCC). The cells were cultured in DMEM (Invitrogen, Australia) containing 10% fetal bovine serum at 37°C, 5% CO2. Serum-free media were used in cytotoxicity assays. Cytotoxicity of LPS to HEK293 cells was determined using Alamar Blue cell viability reagent (Invitrogen, Australia). In brief, HEK293 cells were seeded as 2 × 10^4 cells per well in a clear 96-well plate and incubated for 24 hr at 37°C, 5% CO2. Then the media were replaced with serum-free media, which contained AGP and LPS (100 μg/mL). After a 24 hr incubation, 10 μL of Alamar Blue reagent were added per well and incubated at 37°C for 1 hr. Then the fluorescence intensity was read using Polar star Omega with excitation/emission wavelengths of 560/590."}, "[4]": {"design": "method as in PMID 12887306, PMID 11739189", "settings": "cited from earlier work"}, "[5]": {"test_system": "meningococcal endotoxemia mouse model", "design": "method as in PMID 9179623", "settings": "intraperitoneal, 8 mg, 2 h prior to LPS challenge; cited from earlier work"}},
  "note": "Entries after “also recorded” stand apart in the source; their conditions may differ. Like-named read-outs stand apart in the source and are kept apart here.",
  "data": [
    {"molecule": "CCCCCCCCCCCCCC(=O)O[C@H](CCCCCCCCCCC)CC(=O)O[C@@H]1[C@@H](NC(=O)C[C@@H](CCCCCCCCCCC)OC(=O)CCCCCCCCCCC)[C@H](OC[C@H]2O[C@H](OP(=O)(O)O)[C@H](NC(=O)C[C@H](O)CCCCCCCCCCC)[C@@H](OC(=O)C[C@H](O)CCCCCCCCCCC)[C@@H]2O)O[C@H](CO[C@]2(C(=O)O)C[C@@H](O[C@]3(C(=O)O)C[C@@H](O)[C@@H](O)[C@@H]([C@H](O)CO)O3)[C@@H](O)[C@@H]([C@H](O)CO)O2)[C@H]1OP(=O)(O)O", "note": "[Kdo2-lipid A]", "values": [
      {"measurement": "specific AGP binding to lipid in hybrid SUVs", "setting": "human AGP [1]", "value": "dose-dependent response; also recorded: very weak"}
    ]},
    {"molecule": "CN(C)CCCN1c2ccccc2Sc2ccc(Cl)cc21", "note": "[chlorpromazine]", "values": [
      {"measurement": "change in fluorescence emission of the FITC-LPS:AGP complex", "setting": "human AGP [2]", "value": "decrease in fluorescence emission"}
    ]},
    {"molecule": "AGP: human α-1-acid glycoprotein from plasma, F1:S:A variants 40:30:30", "values": [
      {"measurement": "LPS binding affinity", "setting": "[3]", "value": "high micromolar"},
      {"measurement": "survival of mice", "setting": "K. pneumoniae", "value": "increased the survival of mice"},
      {"measurement": "effect of AGP on the cytotoxic effect of LPS", "setting": "HEK293 cells", "value": "ameliorated in a concentration-dependent manner"}
    ]},
    {"molecule": "diphosphoryl lipid A", "values": [
      {"measurement": "specific AGP binding to lipid in hybrid SUVs", "setting": "human AGP [1]", "value": "no specific AGP binding detected"}
    ]},
    {"molecule": "B1", "values": [
      {"measurement": "LPS binding affinity", "setting": "[4]", "value": "nanomolar"}
    ]},
    {"molecule": "B2", "values": [
      {"measurement": "protection against sepsis", "setting": "[5]", "value": "protect against sepsis"}
    ]},
    {"molecule": "B3", "values": [
      {"measurement": "LPS binding affinity", "setting": "[4]", "value": "nanomolar"}
    ]}
  ]
}
